Drawing on PubChem BioAssay (NCI), this text covers TGI for 14 molecules.

Among the test systems are 786-0 renal; A498 renal; BT-549 breast; CAKI-1 renal; HOP-92 NSCLC; K-562 leukemia; NCI-H226 lung; NCI-H23 lung; NCI/ADR-RES ovarian; OVCAR-3 ovarian; SK-MEL-28 melanoma; SK-MEL-5 melanoma; SN12C renal; TK-10 renal; U251 CNS.
Common to all, as to experiment: inhibition of tumour cell growth, NCI panel, 48 h

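Cultured in 96-well plates, cells were exposed to test compound for 48 hours across five concentrations. TGI is the concentration that stops growth completely.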

Take `CC1=NN(c2nc(N)nc(/C(C#N)=C\c3cccc([N+](=O)[O-])c3)n2)C(C)(C)C1`: the TGI was 32 µM in the experiment with 786-0 renal; greater than 37 µM in the experiment with A498 renal; greater than 89.8 µM in the experiment on BT-549 breast; greater than 94.1 µM with CAKI-1 renal; greater than 100 µM in the experiment with HOP-92 NSCLC; greater than 35.4 µM in the experiment with K-562 leukemia. Moreover, the TGI in the experiment with NCI-H226 lung is greater than 42.7 µM; with NCI-H23 lung, greater than 72 µM; in the experiment on NCI/ADR-RES ovarian, greater than 66.7 µM; with OVCAR-3 ovarian, 26.9 µM; with SK-MEL-28 melanoma it was greater than 65 µM; in the experiment with SK-MEL-5 melanoma, greater than 42.6 µM. Also, the TGI in the experiment with SN12C renal was greater than 65.3 µM; in the experiment on TK-10 renal it was 58.8 µM; in the experiment on U251 CNS, 38.4 µM.
As for `Cc1cccc2c1c(=O)c1c(O)cc(O)cc1n2C`, the TGI in the experiment on 786-0 renal, in the experiment on A498 renal, in the experiment with BT-549 breast, in the experiment with CAKI-1 renal, in the experiment with HOP-92 NSCLC and in the experiment with K-562 leukemia was greater than 100 µM in each case. The TGI in the experiment with NCI-H226 lung, with NCI-H23 lung, in the experiment with NCI/ADR-RES ovarian, in the experiment on OVCAR-3 ovarian, in the experiment on SK-MEL-28 melanoma and with SK-MEL-5 melanoma was greater than 100 µM each time. The TGI in the experiment with SN12C renal, in the experiment on TK-10 renal and with U251 CNS was greater than 100 µM throughout.
`COC(=O)C1=NN2c3ccccc3CN([C@@H](C)c3ccccc3)C(=O)[C@@H]2[C@H]1c1ccccc1`: the TGI in the experiment on 786-0 renal, with A498 renal, in the experiment with BT-549 breast, with CAKI-1 renal, in the experiment on HOP-92 NSCLC and in the experiment on K-562 leukemia was greater than 100 µM in each case. The TGI with NCI-H226 lung, with NCI-H23 lung, with NCI/ADR-RES ovarian, in the experiment on OVCAR-3 ovarian, in the experiment on SK-MEL-28 melanoma and in the experiment with SK-MEL-5 melanoma was greater than 100 µM in each case. For the same molecule, the TGI with SN12C renal, with TK-10 renal and with U251 CNS was greater than 100 µM in each case.
In the case of `COC1CC(O[C@H]2CC[C@@]3(C)[C@@H](CC[C@]4(O)[C@@H]3CC[C@]3(C)[C@@H](C(C)=O)[C@H](OC(=O)CC(C)C)[C@@H](OC(=O)c5ccccc5)[C@@]34O)C2)OC(C)C1OC1CC(OC)C(OC2OC(C)C(O)C(OC)C2O)C(C)O1` (stereo not given in full), the TGI in the experiment with 786-0 renal is greater than 25 µM; in the experiment on A498 renal it was greater than 25 µM; in the experiment on BT-549 breast it was greater than 25 µM; with CAKI-1 renal, greater than 25 µM; with HOP-92 NSCLC it was 24.8 µM; in the experiment on K-562 leukemia, greater than 25 µM. In addition, the TGI with NCI-H226 lung, in the experiment with NCI-H23 lung, in the experiment on NCI/ADR-RES ovarian, in the experiment with OVCAR-3 ovarian, in the experiment on SK-MEL-28 melanoma and in the experiment on SK-MEL-5 melanoma was greater than 25 µM each time. Also, the TGI with SN12C renal, in the experiment with TK-10 renal and in the experiment with U251 CNS was greater than 25 µM throughout.
As for `Nc1nc(=S)n(-c2ccc(Cl)cc2)c2nc3ccccc3cc12`, the TGI in the experiment with 786-0 renal was greater than 100 µM; in the experiment on A498 renal, greater than 100 µM; with BT-549 breast, 67.1 µM; in the experiment on CAKI-1 renal, greater than 100 µM; in the experiment with HOP-92 NSCLC, 83.7 µM; in the experiment on K-562 leukemia, greater than 100 µM. In addition, the TGI in the experiment on NCI-H226 lung, in the experiment with NCI-H23 lung, in the experiment on NCI/ADR-RES ovarian, with OVCAR-3 ovarian, with SK-MEL-28 melanoma and in the experiment on SK-MEL-5 melanoma was greater than 100 µM throughout. Also, the values for the TGI with SN12C renal, with TK-10 renal and in the experiment with U251 CNS were greater than 100 µM, 98.3 µM and greater than 100 µM, respectively.
`COC(=O)C1=C(CCC[C@H](C)O[Si](C)(C)C(C)(C)C)NC(=O)N2[C@@H](CCO)CC[C@H]12`: the TGI with 786-0 renal is 29.1 µM; with A498 renal, 31.1 µM; with BT-549 breast it was 28.4 µM; with CAKI-1 renal, 37.9 µM; in the experiment on HOP-92 NSCLC it was 28.4 µM; with K-562 leukemia it was greater than 100 µM. In addition, the TGI with NCI-H226 lung is 32.4 µM; with NCI-H23 lung, 27.2 µM; with NCI/ADR-RES ovarian it was 29.1 µM; with OVCAR-3 ovarian, 27.9 µM; in the experiment with SK-MEL-28 melanoma it was 35.5 µM; in the experiment with SK-MEL-5 melanoma, 21 µM. Besides, the figures for the TGI in the experiment with SN12C renal, in the experiment on TK-10 renal and in the experiment with U251 CNS were 29.2 µM, 35 µM and 29.6 µM, respectively.
Consider `CCCCCCCCOC(=O)c1cc([N+](=O)[O-])c(Sc2ncnc3nc[nH]c23)c([N+](=O)[O-])c1`, for which the TGI in the experiment on 786-0 renal was greater than 37.2 µM; in the experiment with A498 renal it was 44.9 µM; with BT-549 breast, 25.7 µM; in the experiment with CAKI-1 renal, 17.7 µM; in the experiment with HOP-92 NSCLC, 6.32 µM; in the experiment with K-562 leukemia, 7.8 µM. In addition, the TGI in the experiment on NCI-H226 lung is 13.5 µM; with NCI-H23 lung, 11.7 µM; in the experiment with NCI/ADR-RES ovarian, 25.7 µM; in the experiment with OVCAR-3 ovarian it was 4.01 µM; with SK-MEL-28 melanoma, 42.8 µM; with SK-MEL-5 melanoma, 18.4 µM. Besides, the TGI with SN12C renal turned out to be 7.34 µM; with TK-10 renal it was 8.58 µM; in the experiment on U251 CNS it was 17.3 µM.
In the case of `O=c1oc2ccc3ccccc3c2cc1-c1nc2ccc([N+](=O)[O-])cc2o1`, the TGI in the experiment on 786-0 renal was greater than 55.3 µM; in the experiment with A498 renal, greater than 88.4 µM; in the experiment on BT-549 breast, greater than 95 µM; with CAKI-1 renal it was greater than 91.4 µM; with HOP-92 NSCLC, greater than 91 µM; with K-562 leukemia, greater than 100 µM. The TGI in the experiment with NCI-H226 lung was greater than 100 µM; in the experiment with NCI-H23 lung it was greater than 86.9 µM; with NCI/ADR-RES ovarian, greater than 100 µM; in the experiment with OVCAR-3 ovarian, greater than 100 µM; with SK-MEL-28 melanoma it was greater than 100 µM; in the experiment with SK-MEL-5 melanoma, greater than 100 µM. In addition, the TGI is greater than 100 µM with SN12C renal, greater than 78.6 µM with TK-10 renal and greater than 100 µM in the experiment with U251 CNS.
Turning to `CC1(C)C2CCC(O)(C2)C1N` (stereo not given), the TGI in the experiment with 786-0 renal, in the experiment with A498 renal, with BT-549 breast, with CAKI-1 renal, in the experiment with HOP-92 NSCLC and in the experiment on K-562 leukemia was greater than 100 µM in each case. For the same molecule, the TGI in the experiment on NCI-H226 lung, with NCI-H23 lung, in the experiment with NCI/ADR-RES ovarian, in the experiment with OVCAR-3 ovarian, with SK-MEL-28 melanoma and in the experiment with SK-MEL-5 melanoma was greater than 100 µM in each case. Besides, the TGI in the experiment on SN12C renal, in the experiment with TK-10 renal and in the experiment on U251 CNS was greater than 100 µM in each case.
With `COC1=CC(=O)C2=C(C[C@@]3(C)C(=C2)C(CO)=CC[C@H]3O)C1=O`, the TGI with 786-0 renal is 38.1 µM; in the experiment on A498 renal, greater than 100 µM; with BT-549 breast, 34 µM; with CAKI-1 renal, greater than 100 µM; with HOP-92 NSCLC, 24.5 µM; in the experiment on K-562 leukemia, 24 µM. Besides, the TGI in the experiment on NCI-H226 lung is 29.2 µM; with NCI-H23 lung, 48.7 µM; in the experiment on NCI/ADR-RES ovarian it was 56.1 µM; in the experiment with OVCAR-3 ovarian, 56.2 µM; in the experiment with SK-MEL-28 melanoma, 82.7 µM; with SK-MEL-5 melanoma, 32.2 µM. Moreover, the figures for the TGI in the experiment with SN12C renal, in the experiment on TK-10 renal and in the experiment with U251 CNS were 32.8 µM, greater than 100 µM and 41.6 µM, respectively.
Consider `COc1cc2c[n+](C)c3c(c2cc1OC)Cc1cc2c(cc1-3)OCO2`, for which the TGI with 786-0 renal, in the experiment with A498 renal, in the experiment with BT-549 breast, in the experiment with CAKI-1 renal, in the experiment with HOP-92 NSCLC and with K-562 leukemia was greater than 100 µM throughout. Further, the TGI in the experiment on NCI-H226 lung, in the experiment with NCI-H23 lung, with NCI/ADR-RES ovarian, in the experiment with OVCAR-3 ovarian, in the experiment on SK-MEL-28 melanoma and in the experiment with SK-MEL-5 melanoma was greater than 100 µM throughout. Also, the TGI with SN12C renal, in the experiment on TK-10 renal and in the experiment with U251 CNS was greater than 100 µM each time.
Turning to `CCOC(=O)C(CCc1ncnc2c1ncn2Cc1ccccc1)(CCc1ncnc2c1ncn2Cc1ccccc1)C(=O)OCC`, the TGI in the experiment with 786-0 renal, with A498 renal, with BT-549 breast, in the experiment with CAKI-1 renal, with HOP-92 NSCLC and in the experiment with K-562 leukemia was greater than 100 µM in each case. Moreover, the TGI with NCI-H226 lung, in the experiment with NCI-H23 lung, in the experiment with NCI/ADR-RES ovarian, in the experiment on OVCAR-3 ovarian, in the experiment on SK-MEL-28 melanoma and in the experiment on SK-MEL-5 melanoma was greater than 100 µM throughout. In addition, the TGI in the experiment on SN12C renal, with TK-10 renal and in the experiment with U251 CNS was greater than 100 µM each time.
For the molecule `Cc1ccc(N=C2C(c3ccccc3)=C(SC3=C(c4ccccc4)C(=Nc4ccc(C)cc4)c4ccccc43)c3ccccc32)cc1`, the TGI is 22.4 µM in the experiment on 786-0 renal; 33.5 µM in the experiment with A498 renal; greater than 62.8 µM with BT-549 breast; 65.6 µM in the experiment on CAKI-1 renal; 33.2 µM with HOP-92 NSCLC; greater than 100 µM in the experiment with K-562 leukemia. Further, the TGI with NCI-H226 lung was greater than 63.1 µM; in the experiment with NCI-H23 lung, 41.6 µM; in the experiment on NCI/ADR-RES ovarian, greater than 100 µM; with OVCAR-3 ovarian it was greater than 100 µM; with SK-MEL-28 melanoma, greater than 100 µM; with SK-MEL-5 melanoma, greater than 100 µM. Further, the TGI in the experiment on SN12C renal was 77.1 µM; with TK-10 renal, greater than 100 µM; in the experiment with U251 CNS, greater than 53.5 µM.
In the case of `C1CN2CCNCCN(CCN1)CC2`, the TGI in the experiment on 786-0 renal, with A498 renal, in the experiment with BT-549 breast, in the experiment on CAKI-1 renal, in the experiment on HOP-92 NSCLC and in the experiment with K-562 leukemia was greater than 100 µM throughout. Also, the TGI in the experiment on NCI-H226 lung, in the experiment on NCI-H23 lung, in the experiment on NCI/ADR-RES ovarian, with OVCAR-3 ovarian, in the experiment with SK-MEL-28 melanoma and in the experiment on SK-MEL-5 melanoma was greater than 100 µM each time. The TGI in the experiment on SN12C renal, in the experiment with TK-10 renal and with U251 CNS was greater than 100 µM each time.
